Data: patent US10392422B2, “Macrocyclic broad spectrum antibiotics” (priority 2014, dated 2019)
Converted amounts (≈) assume the structure as drawn. Like-named read-outs stand apart in the source and are kept apart here.

Columns and labels:
Test in all cases: MIC, broth micro-dilution technique (CLSI)
[1] = tested on: Escherichia coli MC4100 harboring the IMP4213; type: cell-based; conditions: 35° C., 22 hours; for MIC: Escherichia coli, 22 h; for MIC (μg/mL) E. coli: Table 2 modified protocol: serial 2-fold dilutions starting from 4 μg/mL
How it was run: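 Susceptibility is tested by broth micro-dilution per CLSI, using ten serial 2-fold dilutions beginning at 64 μg/ml or, in a modified version, 4 μg/mL. The E. coli MC4100 strain carries an imp allele raising outer-membrane permeability.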

[2] = tested on: Methicillin Resistant Staphylococcus aureus strain USA 300 (NRS384); type: cell-based; conditions: for MIC: Staphylococcus aureus, 22 h, read-out: MIC (μg/mL) S. aureus
How it was run: (§1)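 Cation-adjusted MHB + 0.002% Tween-80; 10-point 2-fold series starting 64 μg/ml (modified protocol: 4 μg/mL). Final inoculum OD600 0.0005; 35° C, 22 h. MIC per CLSI M07-A8 broth microdilution.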

MRSA COL (NRS100) = type: cell-based, Staphylococcus aureus; conditions: for MIC: Staphylococcus aureus, 22 h, read-out: MIC (μg/mL) (COL)
How it was run: as §1

[3] = read-out: MIC (μg/mL) E. coli, Table 2 modified protocol: serial 2-fold dilutions starting from 4 μg/mL
[4] = Table 2 modified protocol: serial 2-fold dilutions starting from 4 μg/mL, 35° C., 22 hours
[5] = read-out: MIC (μg/mL) E. coli, Table 1 protocol: serial 2-fold dilutions starting from 64 μg/ml
[6] = Table 1 protocol: serial 2-fold dilutions starting from 64 μg/ml, 35° C., 22 hours

SMILES	MIC [1, 5]	MIC [2, 6]	MIC (MRSA COL (NRS100); [6])	other results
CC(NC(=O)[C@@H]1Cc2ccc(O)c(c2)-c2cc(ccc2O)[C@H](N(C)C(=O)[C@H](CCCCN)NC(=O)c2ccc(-c3ccc(Cl)cc3)cc2)C(=O)N[C@@H](C)C(=O)N1)C(=O)Cn1cc(C(N)=O)nn1 (stereo partly drawn) [Compound 246]				MIC [1, 3]: > 4 µg/mL; MIC [2, 4]: 4 µg/mL (≈ 4.28 µM); MIC (MRSA COL (NRS100); [4]): 3 µg/mL (≈ 3.21 µM)
CCCCCCCCCCNCCC(=O)N[C@@H](CCCCN)C(=O)N(C)[C@@H]1C(=O)N[C@@H](C)C(=O)N[C@H](C(=O)N[C@@H](C)C(=O)COC(C)=O)Cc2ccc(O)c(c2)-c2cc1ccc2O [Compound 200]	64 µg/mL (≈ 72.7 µM)	2 µg/mL (≈ 2.27 µM)	0.5 µg/mL (≈ 0.568 µM)	
C[C@@H]1NC(=O)[C@@H](N(C)C(=O)[C@H](CCCCN)NC(=O)c2ccc(-c3ccc(Cl)cc3)cc2)c2ccc(O)c(c2)-c2cc(ccc2O)C[C@@H](C(=O)N[C@@H](C)C(=O)N2CCC[C@H]2C(=O)NN)NC1=O [Compound 186]	> 64 µg/mL	45 µg/mL (≈ 47.9 µM)	12 µg/mL (≈ 12.8 µM)	
CC(=O)[C@H](C)NC(=O)[C@@H]1Cc2ccc(O)c(c2)-c2cc(cc3cc(CN)oc23)[C@H](N(C)C(=O)[C@H](CCCCN)NC(=O)c2ccc(-c3ccc(Cl)cc3)cc2)C(=O)N[C@@H](C)C(=O)N1 [Compound 212]	5.7 µg/mL (≈ 6.49 µM)	2.5 µg/mL (≈ 2.85 µM)	0.5 µg/mL (≈ 0.569 µM)	
CCCCCCCCCCNCCC(=O)N(C)[C@@H]1C(=O)N[C@@H](C)C(=O)N[C@H](C(=O)N[C@@H](C)C(C)=O)Cc2ccc(O)c(c2)-c2cc1ccc2O [Compound 196]	> 64 µg/mL			MIC [2]: 4 µg/mL (≈ 5.76 µM); MIC (MRSA COL (NRS100)): 1 µg/mL (≈ 1.44 µM)
C[C@@H]1NC(=O)[C@@H](N(C)C(=O)[C@H](CCCCN)NC(=O)c2ccc(-c3ccc(Cl)cc3)cc2)c2ccc(O)c(c2)-c2cc(ccc2O)C[C@@H](C(=O)N[C@@H](C)C(=O)c2nnn[nH]2)NC1=O [Compound 134]	45 µg/mL (≈ 51.2 µM)	2.8 µg/mL (≈ 3.18 µM)	0.75 µg/mL (≈ 0.853 µM)	
C[C@@H]1NC(=O)[C@@H](N(C)C(=O)[C@H](CCCCN)NC(=O)c2ccc(-c3ccc(Cl)cc3)cc2)c2ccc(O)c(c2)-c2cc(ccc2O)C[C@@H](C(=O)NCC(=O)C2CO2)NC1=O (stereo partly drawn) [Compound 252]				MIC [1, 3]: > 4 µg/mL; MIC [2, 4]: > 4 µg/mL; MIC (MRSA COL (NRS100); [4]): > 4 µg/mL
CCCCc1ccc(-c2ccc(C(=O)N[C@@H](CCCN)C(=O)N(C)[C@@H]3C(=O)N[C@@H](C)C(=O)N[C@H](C(=O)NC/C=C/S(C)(=O)=O)Cc4ccc(OCCN)c(c4)-c4cc3ccc4OCCN)cc2)cc1 [Compound 327]				MIC [1, 3]: 0.5 µg/mL (≈ 0.517 µM); MIC [2, 4]: 0.5 µg/mL (≈ 0.517 µM); MIC (MRSA COL (NRS100); [4]): 0.13 µg/mL (≈ 0.134 µM)
C[C@@H]1NC(=O)[C@@H](N(C)C(=O)[C@H](CCCCN)NC(=O)c2ccc(-c3ccc(Cl)cc3)cc2)c2ccc(O)c(c2)-c2cc(ccc2O)C[C@@H](C(=O)N[C@@H](C)C(=O)N(C)c2cc[nH]n2)NC1=O [Compound 333]	32 µg/mL (≈ 35.3 µM)	64 µg/mL (≈ 70.6 µM)	16 µg/mL (≈ 17.7 µM)	
C[C@@H]1NC(=O)[C@@H](N(C)C(=O)[C@H](CCCCN)NC(=O)c2ccc(-c3ccc(Cl)cc3)cc2)c2ccc(O)c(c2)-c2cc(ccc2O)C[C@@H](C(=O)N[C@@H](C)C(=O)N(C)[C@@H](CO)C(N)=O)NC1=O [Compound 198]	16 µg/mL (≈ 17.3 µM)	13 µg/mL (≈ 14 µM)	2 µg/mL (≈ 2.16 µM)	
C[C@@H]1NC(=O)[C@@H](N(C)C(=O)[C@H](CCCCN)NC(=O)c2ccc(-c3ccc(Cl)cc3)cc2)c2ccc(O)c(c2)-c2cc(ccc2O)C[C@@H](C(=O)N[C@@H](C)C(=O)N(C)[C@@H](CCC(=O)O)C(N)=O)NC1=O [Compound 159]	32 µg/mL (≈ 33 µM)	23 µg/mL (≈ 23.7 µM)	8 µg/mL (≈ 8.25 µM)	
Cc1nc(C(=O)[C@H](C)NC(=O)[C@@H]2Cc3ccc(O)c(c3)-c3cc(ccc3O)[C@H](N(C)C(=O)[C@H](CCCCN)NC(=O)c3ccc(-c4ccc(Cl)cc4)cc3)C(=O)N[C@@H](C)C(=O)N2)no1 [Compound 237]	8 µg/mL (≈ 8.95 µM)	12 µg/mL (≈ 13.4 µM)	4 µg/mL (≈ 4.48 µM)	
C[C@@H]1NC(=O)[C@@H](N(C)C(=O)[C@H](CCCCN)NC(=O)c2ccccc2-c2ccc(Cl)cc2)c2ccc(OCCN)c(c2)-c2cc(ccc2OCCN)C[C@@H](C(=O)O)NC1=O [Compound 284]				MIC [1, 3]: > 4 µg/mL; MIC [2]: > 4 µg/mL; MIC (MRSA COL (NRS100)): > 4 µg/mL
C[C@@H]1NC(=O)[C@@H](N(C)C(=O)[C@H](CCCCN)NC(=O)c2ccc(-c3ccc(Cl)cc3)cc2)c2ccc(O)c(c2)-c2cc(ccc2O)C[C@@H](C(=O)N[C@@H](C)C(=O)c2ccccn2)NC1=O [Compound 250]	64 µg/mL (≈ 72 µM)	64 µg/mL (≈ 72 µM)	11 µg/mL (≈ 12.4 µM)	
C[C@H](NC(=O)[C@@H]1Cc2ccc(O)c(c2)-c2cc(ccc2O)[C@H](N(C)C(=O)[C@H](CCCCN)NC(=O)c2ccc(-c3ccc(Cl)cc3)cc2)C(=O)N[C@@H](C)C(=O)N1)C(=O)N[C@H]1CCNC1=O [Compound 135]	64 µg/mL (≈ 70.4 µM)	> 64 µg/mL	32 µg/mL (≈ 35.2 µM)	
C[C@@H]1NC(=O)[C@@H](N(C)C(=O)[C@H](CCCCN)NC(=O)c2ccc(-c3ccc(Cl)cc3)cc2)c2ccc(O)c(c2)-c2cc(ccc2O)C[C@@H](C(=O)N[C@@H](C)C(=O)N2CCCC23CCNC3=O)NC1=O (stereo partly drawn) [Compound 160]	64 µg/mL (≈ 67.4 µM)	> 64 µg/mL	> 64 µg/mL	
C[C@@H]1NC(=O)[C@@H](N(C)C(=O)[C@H](CCCCN)NC(=O)c2ccc(-c3ccc(Cl)cc3)cc2)c2ccc(O)c(c2)-c2cc(ccc2O)C[C@@H](C(=O)NCC(=O)c2ncc[nH]2)NC1=O [Compound 245]				MIC [1, 3]: > 4 µg/mL; MIC [2, 4]: 4 µg/mL (≈ 4.63 µM); MIC (MRSA COL (NRS100); [4]): 2 µg/mL (≈ 2.32 µM)
CCCCCCCCCCNCCS(=O)(=O)N[C@@H](CCCCN)C(=O)N(C)[C@@H]1C(=O)N[C@@H](C)C(=O)N[C@H](C(=O)O)Cc2ccc(O)c(c2)-c2cc1ccc2O [Compound 214]	64 µg/mL (≈ 81.1 µM)			MIC [2]: 2.8 µg/mL (≈ 3.55 µM); MIC (MRSA COL (NRS100)): 0.75 µg/mL (≈ 0.951 µM)
C[C@@H]1NC(=O)[C@@H](N(C)C(=O)[C@H](CCCCN)NC(=O)c2ccc(-c3ccc(Cl)cc3)cc2)c2ccc(O)c(c2)-c2cc(ccc2O)C[C@@H](C(=O)N[C@@H](C)/C=C/S(N)(=O)=O)NC1=O [Compound 249]	48 µg/mL (≈ 54 µM)			MIC [2]: 32 µg/mL (≈ 36 µM); MIC (MRSA COL (NRS100)): 16 µg/mL (≈ 18 µM)
C[C@H](NC(=O)[C@@H]1Cc2ccc(O)c(c2)-c2cc(ccc2O)[C@H](N(C)C(=O)[C@H](CCCCN)NC(=O)c2ccc(-c3ccc(Cl)cc3)cc2)C(=O)N[C@@H](C)C(=O)N1)C(=O)Cc1c[nH]nn1 [Compound 192]	64 µg/mL (≈ 71.7 µM)	11 µg/mL (≈ 12.3 µM)	2 µg/mL (≈ 2.24 µM)	
CCCCCCCCCC(=O)N[C@@H](CO)C(=O)N(C)[C@@H]1C(=O)N[C@@H](C)C(=O)N[C@H](C(=O)N[C@@H](C)C(=O)c2nnn[nH]2)Cc2ccc(OCCN)c(c2)-c2cc1ccc2OCCN.O=CO [Compound 265]				MIC (μg/mL) E. coli [1]: 4 µg/mL; MIC (μg/mL) S. aureus [2, 4]: 1 µg/mL; MIC (μg/mL) (COL) (MRSA COL (NRS100); [4]): 0.25 µg/mL
C[C@@H]1NC(=O)[C@@H](N(C)C(=O)[C@H](CCCCN)NC(=O)c2ccc(-c3ccc(Cl)cc3)cc2)c2ccc(OCCN)c(c2)-c2cc(ccc2OCCN)C[C@@H](C(=O)N[C@@H](C)C(=O)c2c([N+](=O)[O-])cnn2C)NC1=O [Compound 276]				MIC (μg/mL) E. coli [1]: 4 µg/mL (≈ 3.91 µM); MIC (μg/mL) S. aureus [2, 4]: 4 µg/mL (≈ 3.91 µM); MIC (μg/mL) (COL) (MRSA COL (NRS100); [4]): 1.5 µg/mL (≈ 1.47 µM)
C[C@@H]1NC(=O)[C@@H](N(C)C(=O)[C@H](CCCCN)NC(=O)c2ccc(-c3ccc(Cl)cc3)cc2)c2ccc(OCCN)c(c2)-c2cc(ccc2OCCN)C[C@@H](C(=O)N[C@@H](C)C(=O)c2[nH]ncc2N)NC1=O [Compound 274]				MIC [1, 3]: 4 µg/mL (≈ 4.09 µM); MIC [2, 4]: > 4 µg/mL; MIC (MRSA COL (NRS100); [4]): 1.5 µg/mL (≈ 1.53 µM)
CCCCCCCCCCCCCC(=O)N(C)[C@@H]1C(=O)N[C@@H](C)C(=O)N[C@H](C(=O)O)Cc2ccc(OCCN)c(c2)-c2cc1ccc2OCCN [Compound 291]	8 µg/mL (≈ 11.3 µM)			MIC [2]: 8 µg/mL (≈ 11.3 µM); MIC (MRSA COL (NRS100)): 4 µg/mL (≈ 5.63 µM)
CC(=O)[C@H](C)NC(=O)[C@@H]1Cc2ccc(O)c(c2)-c2cc(ccc2OCCCN)[C@H](N(C)C(=O)[C@H](CCCCN)NC(=O)c2ccc(-c3ccc(Cl)cc3)cc2)C(=O)N[C@@H](C)C(=O)N1 [Compound 202]	8 µg/mL (≈ 9.07 µM)	2.8 µg/mL (≈ 3.17 µM)	0.5 µg/mL (≈ 0.567 µM)	
